# Values joined by “and” are separate entries in the source; they are usually repeats but may differ in a detail not shown here. Equal values may be shown once. Read-outs that look alike come from different tables or passages of the source.
# How the values were obtained:
# [1] = tested on: Hh signaling pathway; experiment: NIH3T3-GRE-Luc luciferase reporter assay (primary assay); format: cell-based
# Text: NIH3T3 cells (CRL-1658, ATCC) were maintained in DMEM (Gibico) supplemented with 10% FBS (Hyclone). GRE-Luc plasmid was generated by inserting 8×Gli-1 responsive element (GRE) into the multiple cloning site of pGL4.26 vector (Promega). NIH3T3-GRE-Luc reporter cell line was established by hygromycin (Invitrogen) selection after transfected with GRE-Luc luciferase reporter plasmid. Single clones were validated by the induction of luciferase by recombinant sonic hedgehog (sHh) protein or small molecule agonist SAG (ABIN629346). Selected clone was used to monitor the Hh signaling.
# (§1) The NIH3T3-GRE-Luc cells were maintained in complete culture medium (DMEM with 4 mM L-Gln, 1.5 g/L sodium bicarbonate and 4.5 g/L glucose supplemented with 100 μg/mL hygromycin and 10% FBS). When confluent, the cells were trypsinized and re-suspended in assay medium (0.5% serum-containing DMEM). After 100 µL/well of cells suspension was added to the 96-well-plate (Final cell concentration is 15,000 cells/well), cells were cultured for additional 48 hours before adding the compounds.
# Compounds were serially diluted in DMSO and further diluted with assay medium. In an embodiment, 10 nM SAG was added in assay medium as the agonist of Hh signaling. After the compounds and agonist were prepared, the medium was removed carefully. 100 μL of assay medium containing compound and agonist was added to the cell with care. Cell plates were incubated at 37° C. for additional 48 hours.
# (§2) Following the 48 hours incubation, 40 μL/well of luciferase media (Brigh-Glo, Promega) was added to the cells. The plate was incubated at room temperature for 5 minutes under gentle shaking. Luminescence signal was measured with plate reader (PHERAstar FS, BMG). The potency of compounds was calculated based on the inhibition of luminescence signaling.
# NIH3T3 cells (CRL-1658, ATCC) were maintained in DMEM (11965, Gibico) supplemented with 10% FBS (Hyclone). GRE-Luc plasmid was generated by cloning 8×Gli-1 responsive element (GRE) into the MCS of pGL4.26 (Promega). NIH3T3-GRE-Luc reporter cell lines were established by hygromycin (Invitrogen) selection after transfection with GRE-Luc luciferase reporter plasmid. Single clones were validated for the assay quality with N-terminal fragment of recombinant sonic hedgehog protein or small molecule agonist SAG (ABIN629346). Selected clone were used to monitor the Hh signaling.
# as §1, with “ug/ml” for “μg/mL”, “resuspended” for “re-suspended”, “ul/well” for “µL/well”
# Compounds were serially diluted in DMSO and further diluted with assay medium. In an embodiment, 10 nM SAG was added in assay medium as the agonist of Hh signaling. After the compounds and agonist were prepared, carefully remove medium (Aspirate the medium with pipette instead of vacuum, or else the NIH3T3 cells monolayer will be detached). 100 ul of assay medium containing compound or agonist was added to the cell with care. Cell plates were incubated at 37 degree for additional 48 hours.
# as §2, with “ul/well” for “μL/well”, “min” for “minutes”, “basing” for “based”
# [2] = Rat pharmacokinetics experiments; format: in vivo, Sprague-Dawley rats; details: for AUC(0-t): read-out: Area under the curve AUC0-24 h; for bioavailability: po
# Method: Male Spraguee-Dawley rats (body weight: 220 g˜250 g) were purchased from Slac Laboratory Animals (Shanghai). […] Blood samples were taken through the posterior orbital vein and the blood samples were placed in a tube containing EDTA (as an anticoagulant) and stored in a −80° C. environment after centrifugation with a refrigerated centrifuge. Blood sample (at an amount of folds of 25 μL) was taken and cold acetonitrile containing the internal standard (100 μL) was added. Sample was centrifuged for 10 minutes to precipitate the plasma protein. Finally, supernatant (10 μL) was injected into the LC-MS/MS system for analysis.
# LC-MS/MS analysis method: All samples were analyzed by LC-MS/MS system of API4000 QTRAP mass spectrometer equipped with LC-20AD and CBM-20A controllers, DGU-20A solvent degasser and SIL-20A autosampler (Japan Shimadzu, Colombia, Md., USA). A Bona Aeger Venusil XBP C18 column (50×2.1 mm; filler 5 micron particle size) was used for HPLC separation. The column temperature was maintained at 40° C. The flow rate was 0.3 mL/min and the total run time was 6 minutes.
# For the quantification of MS/MS, the API4000 QTRAP mass spectrometer was operated in an ESI positive mode with multiple reaction monitoring (MRM). All compounds and internal standards were set to be monitored during a residence time of 100 milliseconds. The other MS/MS parameters were set as follows: atomization gas (GS1) at 30 psi, 551b turbine pressure, 4500V ion spray voltage, 500° C. ion source temperature. For the selected ion transitions, each analyte was tested at the optimal sensitivity of the cluster potential (DP) and the collision energy (CE). Finally, the data was collected and processed using AB SCIEX Analysist 1.5.2 data collection and integration software.
# Test subjects, Sprague-Dawley rats (body weight from about 220 g to about 250 g), were purchased from Slac Laboratory Animals (Shanghai, China). All compounds tested at 1 mg/mL concentration, either intravenous injected at a tail vein at 1 mL/kg dosage for one group of test subjects or administered orally at a dose of 10 mL/kg in another group of test subjects. Then aliquots of blood samples were collected by retro-orbital venous plexus puncture at time intervals after the injection/administration. The blood samples were kept in tubes containing EDTA, centrifuged and stored at −80° C. before analysis. Blank plasma was collected by the same method before rats were treated with compounds. Plasma samples for analysis were obtained by removing about 25 μL from the saved blood sample; adding cold acetonitrile (about 100 μL) as internal standard; centrifuged for 10 minutes to precipitate plasma proteins; and collect about 10 μL of the upper clear solution for analysis done by an LC-MS/MS system.
# All samples were analyzed by an API 4000 QTRAP® LC/MS/MS System equipped with Shimadzu LC-20AD pump, Shimadzu CBM-20A controller, SIL-20A autosampler and DGU-20A degasser (Shimadzu, Columbia, Md., USA). A Venusil XBP C18 HPLC Column (2.1×50 mm, 5 μm) (Bonna-Agela Technologies) was used for HPLC separation at isocratic temperature of 40° C. Flow rate was kept at 0.3 mL/min and the total run time was kept at 6 minutes.
# Quantification by MS/MS is done using the above-described API 4000 QTRAP mass spectrometer equipped with multiple reaction monitoring (MRM) and positive electrospray ionization (ESI+) modes. All compounds and internal standard were detected at […] of about 100 milliseconds. Other parameters for MS/MS are shown below: Ion Source Gas 1 (GS1) at 30 psi, turbine pressure at 55 pounds, ion spray voltage at 4500 V, and ion source temperature at 500° C. MRM measurements of the analytes were performed using declustering potential (DP) and […] values optimized for each analyte. Finally, all of the operations, the acquisition and analysis of data were controlled by Analyst (version 1.5.2, AB Sciex, USA).
# [3] = Oxidative metabolism found in pharmacokinetic studies; details: benzylic oxidation at the C-5 methylene group
# [4] = tested on: Hh signaling pathway; details: cited from earlier work
# [5] = IC50 value of Vismodegib over that of the tested compound in the same assay
# [6] = primary assay, Table 5, read-out: SMO IC50
# [7] = previous patent, read-out: IC50 of NIH3T3-GRE-Luc, reported in WO2014113191A1
structure (smiles),measurement,setting,value
Cc1cnc(-c2cc(N3CCc4nc(N5CCC(O)C5)ncc4C3=O)ncc2Cl)c(C)c1 (stereo not shown) [C],Ratio,[1]; [5],0.16
same,IC50,[1]; [6],272 nM
"Cc1cnc(-c2cc(N3CCc4nc(N5CCC(O)CC5)ncc4C3)ncc2Cl)c(C)c1 [Compound A-55, reference compound]",AUC0-24 h,"[2]; I.V., 2 mg/kg",1780 ng·h/mL
same,CL,"[2]; I.V., 2 mg/kg",18.6 mL/min/kg
same,t1/2,"[2]; I.V., 2 mg/kg",1 h
same,AUC0-24 h,"[2]; P.O., 10 mg/kg",5540 ng·h/mL
same,Vd,"[2]; male, Sprague-Dawley, plasma, intravenous injection, 2 mg/kg, read-out: Apparent volume of distribution Vd, ss",1.7 L/kg
same,AUC(0-t),"[2]; male, Sprague-Dawley, plasma, intravenous injection, 2 mg/kg",1780 ng·h/mL
same,clearance,"[2]; male, Sprague-Dawley, plasma, intravenous injection, 2 mg/kg, read-out: Clearance CL",18.6 mL/min/kg
same,half-life,"[2]; male, Sprague-Dawley, plasma, intravenous injection, 2 mg/kg, read-out: Half-life t1/2 (converted)",1 h
same,AUC(0-t),"[2]; male, Sprague-Dawley, plasma, oral, 10 mg/kg",5540 ng·h/mL
same,Cmax,"[2]; male, Sprague-Dawley, plasma, oral, 10 mg/kg, read-out: Maximum plasma concentration Cmax",2180 ng/mL
same,Tmax,"[2]; male, Sprague-Dawley, plasma, oral, 10 mg/kg, read-out: Peak time Tmax",0.5 h
same,bioavailability,"[2]; male, Sprague-Dawley, plasma, 10 mg/kg, P.O. 10 mg/kg vs I.V. 2 mg/kg, read-out: F %",62%
same,bioavailability,"[2]; male, Sprague-Dawley, plasma, 10 mg/kg, oral 10 mg/kg vs intravenous 2 mg/kg, read-out: Bioavailability F %",62%
same,bioavailability,"[2]; male, Sprague-Dawley, plasma, 10 mg/kg, oral, read-out: bioavailability",62%
same,susceptibility to oxidative metabolism (in words),[3],easy to metabolized via benzylic oxidation
same,IC50,[4]; [7],5.5 nM
Cc1cnc(-c2cc(N3CCc4nc(N5CCC(O)CC5)ncc4C3=O)ncc2Cl)c(C)c1 [Compound A-97],"ratio to vismodegib (relative efficacy), WO2014113191A1",[4]; previous patent,about 0.5 fold
same,"ratio to vismodegib (relative efficacy), WO2014113191A1","[4]; previous patent, listed as A97",0.54 fold
same,IC50,[4]; [7],84 nM
"Cc1cnc(-c2cc(N3CCc4nc(N5CCC(O)CC5)ncc4[C@@H]3C)ncc2Cl)c(C)c1 [Compound B2, (S)-1-(6-(5′-chloro-3,5-dimethyl-[2,4′-bipyridin]-2′-yl)-5-methyl-5,6,7,8-tetrahydropyrido[4,3-d]pyrimidin-2-yl)piperidin-4-ol]",Hh pathway inhibitory activity (in words),[1],relatively poor
same,IC50,"[1]; 48 h, 10 nM SAG as agonist, 48 hours, read-out: Effect IC50 (nM)(GRE reporter assay)",17 nM
same,Ratio,[1]; IC50 of vismodegib over that of the tested compound in the same assay,1.1
same,Ratio,[1]; [5],1.1
same,IC50,[1]; [6],17 nM
"Cc1cnc(-c2cc(N3CCc4nc(NC5CC5)ncc4[C@@H]3C)ncc2Cl)c(C)c1 [Compound B3, (5 S)-6-[5-chloro-4-(3,5-dimethyl-2-pyridyl)-2-pyridyl]-N-cyclopropyl-5-methyl-7,8-dihydro-5H-pyrido[4,3-d]pyrimidin-2-amine]",Ratio,[1]; [5],3.1
same,IC50,[1]; [6],4 nM
"Cc1cnc(-c2cc(N3CCc4nc(NC5CC5)ncc4[C@H]3C)ncc2Cl)c(C)c1 [Compound B4, (R)-6-(5′-Chloro-3,5-dimethyl-[2,4′-bipyridin]-2′-yl)-N-cyclopropyl-5-methyl-5,6,7,8-tetrahydropyrido[4,3-d]pyrimidin-2-amine]",Ratio,[1]; [5],8.1
same,IC50,[1]; [6],2.2 nM
"CCC(=O)Nc1ncc2c(n1)CCN(c1cc(-c3ncc(C)cc3C)c(Cl)cn1)[C@@H]2C [Compound B5, (R)—N-(6-(5′-chloro-3,5-dimethyl-[2,4′-bipyridin]-2′-yl)-5-methyl-5,6,7,8-tetrahydropyrido[4,3-d]pyrimidin-2-yl)propionamide]",Ratio,[1]; [5],0.35
same,IC50,[1]; [6],75 nM
"Cc1cnc(-c2cc(N3CCc4nc(NC(=O)C(C)(C)C)ncc4[C@H]3C)ncc2Cl)c(C)c1 [Compound B6, (R)—N-(6-(5′-chloro-3,5-dimethyl-[2,4′-bipyridin]-2′-yl)-5-methyl-5,6,7,8-tetrahydropyrido[4,3-d]pyrimidin-2-yl)pivalamide]",Ratio,[1]; [5],6.7
same,IC50,[1]; [6],3.9 nM
Cc1cnc(-c2cc(N3CCc4nc(N5CCC(O)C5)ncc4C3C)ncc2Cl)c(C)c1 (stereo not shown) [D],Ratio,[1]; [5],3.2
same,IC50,[1]; [6],4.2 nM
Cc1cnc(-c2cc(N3CCc4nc(NCC5CC5)ncc4C3C)ncc2Cl)c(C)c1 (stereo not shown) [E],Ratio,[1]; [5],1.74
same,IC50,[1]; [6],7.7 nM
Cc1cnc(-c2cc(N3CCc4nc(NC5CC5)ncc4C3C)ncc2Cl)c(C)c1 (stereo not shown) [F],Ratio,[1]; [5],4.5
same,IC50,[1]; [6],4.4 nM
"CS(=O)(=O)c1ccc(C(=O)Nc2ccc(Cl)c(-c3ccccn3)c2)c(Cl)c1 [vismodegib, reference compound]",IC50,"[1]; vismodegib control in the same assay as the test compound of the line, read-out: Effect IC50 (nM)(GRE reporter assay: vismodegib)",13.4 nM and 17.9 nM and 19.3 nM
same,IC50,"[1]; vismodegib control in the same assay as the test compound of the line, read-out: SMO IC50 (nM) (vismodegib)",26 nM
same,IC50,"[4]; reference in the run of A-55 (8.8) and of A-97 (45), read-out: IC50 of reference vismodegib, reported in WO2014113191A1",8.8 nM and 45 nM

# Reference: patent US10919889B2, “Chiral heterocyclic compound with hedgehog pathway antagonist activity, method and use thereof” (SUZHOU KINTOR PHARMACEUTICALS, INC., priority 2016, dated 2021)
